Results as given in patent US9221827B2, “Antimicrobial compounds and methods of making and using the same” (Melinta Therapeutics, Inc., priority 2011, dated 2015).

Test system: Escherichia coli strain ATCC25922
Experiment: standard microdilution assay to determine minimum inhibitory concentrations (MICs)
Format: cell-based
Procedure, shortened: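 Broth microdilution per CLSI (M7-A8/M100-S20), 100 μl final volume, with reference-strain quality control; MIC is the lowest inhibitory concentration. Scored "+"/"−" against a 16 micrograms/ml cutoff, "N/A" where unavailable.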

[1] = Escherichia coli strain ATCC25922, microdilution
[2] = Escherichia coli strain ATCC25922, standard microdilution assay

CC(CCCc1cc(-c2cc3cn(-c4ccc(C(C)NCCCNC(=N)N)cc4)c(=O)nc3[nH]2)cc(C(F)(F)F)c1)NC(=N)N (stereo not shown) [Compound 276]
E. coli ATCC25922 MIC [1]: + (a “+” indicates that the compound has an MIC value of 16 micrograms/ml or less)

C[C@H](NCCCNC(=N)N)c1ccc(-n2cc3cc(-c4cc(CCCC(C)(C)N)cc(C(F)(F)F)c4)[nH]c3nc2=O)cc1 [Compound 318]
E. coli ATCC25922 MIC [1]: + (a “+” indicates that the compound has an MIC value of 16 micrograms/ml or less)

N=C(N)NCCCNCc1ccc(-n2cc3cc(-c4cc(CCC[C@@H](N)CO)cc(Cl)c4F)[nH]c3nc2=O)cc1 [Compound 342]
E. coli ATCC25922 MIC [2]: + (a “+” indicates that the compound has an MIC value of 16 micrograms/ml or less)

C[C@H](N)c1ccc(-n2cc3cc(-c4cc(CCC5(CN)CC5)cc(SC(F)(F)F)c4)[nH]c3nc2=O)cc1 [Compound 358]
E. coli ATCC25922 MIC [2]: − (a “−” indicates that the compound has an MIC value greater than 16 micrograms/ml)

CCC(N)CCCc1cc(SC(F)(F)F)cc(-c2cc3cn(-c4ccc(C(C)NCCCNC(=N)N)cc4)c(=O)nc3[nH]2)c1 (stereo not shown) [Compound 381]
E. coli ATCC25922 MIC [2]: + (a “+” indicates that the compound has an MIC value of 16 micrograms/ml or less)

N=C(N)NCCCNCc1ccc(-n2cc3cc(-c4cc(C(O)CCCN)ccc4Cl)[nH]c3nc2=O)cc1 (stereo not shown) [Compound 51]
E. coli ATCC25922 MIC [1]: + (a “+” indicates that the compound has an MIC value of 16 micrograms/ml or less)

Cc1c(CCCCN)cc(-c2cc3cn(-c4ccc(CNCCCNC(=N)N)cc4)c(=O)nc3[nH]2)cc1[N+](=O)[O-] [Compound 121]
E. coli ATCC25922 MIC [1]: + (a “+” indicates that the compound has an MIC value of 16 micrograms/ml or less)

C[C@H](N)CCCc1cc2c(c(-c3cc4cn(-c5ccc([C@H](C)NCCCNC(=N)N)cc5)c(=O)nc4[nH]3)c1)OCCC2=O [Compound 456]
E. coli ATCC25922 MIC [2]: + (a “+” indicates that the compound has an MIC value of 16 micrograms/ml or less)

N=C(N)NCCCNCc1ccc(-n2cc3cc(-c4cc(CCCCN)cc([N+](=O)[O-])c4Cl)[nH]c3nc2=O)cc1 [Compound 115]
E. coli ATCC25922 MIC [1]: + (a “+” indicates that the compound has an MIC value of 16 micrograms/ml or less)

CC(CN)Cc1cc(Cl)c(F)c(-c2cc3cn(-c4ccc(CNCCCNC(=N)N)cc4)c(=O)nc3[nH]2)c1 (stereo not shown) [Compound 256]
E. coli ATCC25922 MIC [1]: + (a “+” indicates that the compound has an MIC value of 16 micrograms/ml or less)

N=C(N)NCCCNCc1ccc(-n2cc3cc(-c4cc(CCCCN)cc(CN)c4C(F)(F)F)[nH]c3nc2=O)cc1 [Compound 250]
E. coli ATCC25922 MIC [1]: + (a “+” indicates that the compound has an MIC value of 16 micrograms/ml or less)

NCCCCc1cc(SC(F)(F)F)cc(-c2cc3cn(-c4ccc(CNCCCN=C(N)N)c(F)c4)c(=O)nc3[nH]2)c1 [Compound 68]
E. coli ATCC25922 MIC [1]: + (a “+” indicates that the compound has an MIC value of 16 micrograms/ml or less)

C[C@H](N)CCCc1cc(-c2cc3cn(-c4ccc([C@H](C)NCCCNC(=N)N)cc4)c(=O)nc3[nH]2)cc(Cl)n1 [Compound 428]
E. coli ATCC25922 MIC [2]: + (a “+” indicates that the compound has an MIC value of 16 micrograms/ml or less)

N=C(N)NCCCNCc1ccc(-n2cc3cc(-c4cc(CCCCN)cc(OC(F)F)c4Cl)[nH]c3nc2=O)cc1 [Compound 214]
E. coli ATCC25922 MIC [1]: + (a “+” indicates that the compound has an MIC value of 16 micrograms/ml or less)

C[C@H](N)CCCc1cc(-c2cc3cn(-c4ccc([C@H](C)NCCCNC(=N)N)cc4)c(=O)nc3[nH]2)cc(C(C)(C)C)c1 [Compound 434]
E. coli ATCC25922 MIC [2]: + (a “+” indicates that the compound has an MIC value of 16 micrograms/ml or less)

CC(CN)SCc1cc(SC(F)(F)F)cc(-c2cc3cn(-c4ccc(CNCCCNC(=N)N)cc4)c(=O)nc3[nH]2)c1 (stereo not shown) [Compound 336]
E. coli ATCC25922 MIC [2]: + (a “+” indicates that the compound has an MIC value of 16 micrograms/ml or less)

N=C(N)NCCCNCc1ccc(-n2cc3cc(-c4cc(CCC5(CN)CCC5)ccc4F)[nH]c3nc2=O)cc1 [Compound 116]
E. coli ATCC25922 MIC [1]: + (a “+” indicates that the compound has an MIC value of 16 micrograms/ml or less)

CC(NCCCNC(=N)N)c1ccc(-n2cc3cc(-c4cc(C5CCC(N)CC5)cc(C(F)(F)F)c4)[nH]c3nc2=O)cc1 (mixture of isomers) [Compound 426]
E. coli ATCC25922 MIC [2]: + (a “+” indicates that the compound has an MIC value of 16 micrograms/ml or less)

C=C[C@H](NCCCNC(=N)N)c1ccc(-n2cc3cc(-c4cc(CCC[C@H](C)N)cc(Cl)c4F)[nH]c3nc2=O)cc1 [Compound 475]
E. coli ATCC25922 MIC [1]: + (a “+” indicates that the compound has an MIC value of 16 micrograms/ml or less)

CC(N)CCCc1cc(SC(F)(F)F)cc(-c2cc3cn(-c4ccc(C(NCCCNC(=N)N)C(=O)O)cc4)c(=O)nc3[nH]2)c1 (stereo not shown) [Compound 503]
E. coli ATCC25922 MIC [1]: − (a “−” indicates that the compound has an MIC value greater than 16 micrograms/ml)

N=C(N)NCCCNCc1ccc(-n2cc3cc(-c4cc(CCCCN)cc(-c5cccnc5)c4)[nH]c3nc2=O)cc1 [Compound 61]
E. coli ATCC25922 MIC [1]: + (a “+” indicates that the compound has an MIC value of 16 micrograms/ml or less)

N=C(N)NCCCNCc1ccc(-n2cc3cc(-c4cc(COC5COCC5N)cc(OC(F)(F)F)c4)[nH]c3nc2=O)cc1 (stereo not shown) [Compound 459]
E. coli ATCC25922 MIC [2]: + (a “+” indicates that the compound has an MIC value of 16 micrograms/ml or less)

CC(NCCCNC(=N)N)c1ccc(-n2cc3cc(-c4cc(CC5CC(CN)C5)cc(C(F)(F)F)c4)[nH]c3nc2=O)cc1 (stereo not shown) [Compound 350]
E. coli ATCC25922 MIC [2]: + (a “+” indicates that the compound has an MIC value of 16 micrograms/ml or less)

Cc1c(C#N)cc(CCCCN)cc1-c1cc2cn(-c3ccc(CNCCCNC(=N)N)cc3)c(=O)nc2[nH]1 [Compound 134]
E. coli ATCC25922 MIC [1]: + (a “+” indicates that the compound has an MIC value of 16 micrograms/ml or less)

CCc1cc(CCCC(C)N)cc(-c2cc3cn(-c4ccc(C(C)NCCCNC(=N)N)cc4)c(=O)nc3[nH]2)c1F (stereo not shown) [Compound 300]
E. coli ATCC25922 MIC [1]: + (a “+” indicates that the compound has an MIC value of 16 micrograms/ml or less)

Cc1ccc(CCCCN)cc1-c1cc2cn(-c3ccc(CNCCCNC(=N)N)cc3)c(=O)nc2[nH]1 [Compound 57]
E. coli ATCC25922 MIC [1]: + (a “+” indicates that the compound has an MIC value of 16 micrograms/ml or less)

Cc1cc(CCCCN)cc(-c2cc3cn(-c4ccc(CNCCCNC(=N)N)cc4)c(=O)nc3[nH]2)c1F [Compound 133]
E. coli ATCC25922 MIC [1]: + (a “+” indicates that the compound has an MIC value of 16 micrograms/ml or less)

CC(N)CCCc1cc(OC(F)(F)F)c(Cl)c(-c2cc3cn(-c4ccc(CNCCCNC(=N)N)cc4)c(=O)nc3[nH]2)c1 (stereo not shown) [Compound 281]
E. coli ATCC25922 MIC [1]: + (a “+” indicates that the compound has an MIC value of 16 micrograms/ml or less)

N=C(N)NCCCNCc1ccc(-n2cc3cc(-c4cc(CCC(O)CN)cc(Cl)c4F)[nH]c3nc2=O)cc1 (stereo not shown) [Compound 254]
E. coli ATCC25922 MIC [1]: + (a “+” indicates that the compound has an MIC value of 16 micrograms/ml or less)

N=C(N)NCC(F)(F)CNCc1ccc(-n2cc3cc(-c4cc(CCCCN)cc(OC(F)(F)F)c4)[nH]c3nc2=O)cc1 [Compound 30]
E. coli ATCC25922 MIC [1]: + (a “+” indicates that the compound has an MIC value of 16 micrograms/ml or less)

CNC(C)CCCc1cc(-c2cc3cn(-c4ccc(CNCCCNC(=N)N)cc4)c(=O)nc3[nH]2)cc(C(F)(F)F)c1 (stereo not shown) [Compound 287]
E. coli ATCC25922 MIC [1]: + (a “+” indicates that the compound has an MIC value of 16 micrograms/ml or less)

C[C@H](N)CCCc1cc(-c2cc3cn(-c4ccc(CNCCCNC(=N)N)cc4)c(=O)nc3[nH]2)cc(F)c1F [Compound 465]
E. coli ATCC25922 MIC [2]: + (a “+” indicates that the compound has an MIC value of 16 micrograms/ml or less)

CN=C(N)NCCCNC(C)c1ccc(-n2cc3cc(-c4cc(CCCC(C)N)cc(Cl)c4F)[nH]c3nc2=O)cc1 (stereo not shown) [Compound 348]
E. coli ATCC25922 MIC [2]: + (a “+” indicates that the compound has an MIC value of 16 micrograms/ml or less)

Cc1c(Cl)cc(-c2cc3cn(-c4ccc(CNCCCNC(=N)N)cc4)c(=O)nc3[nH]2)cc1CCCCN [Compound 109]
E. coli ATCC25922 MIC [1]: + (a “+” indicates that the compound has an MIC value of 16 micrograms/ml or less)

N=C(N)NCCCNCc1ccc(-n2cc3cc(-c4cc(CCCCN)cc(F)c4Cl)[nH]c3nc2=O)cc1 [Compound 37]
E. coli ATCC25922 MIC [1]: + (a “+” indicates that the compound has an MIC value of 16 micrograms/ml or less)

N=C(N)NCCCNCc1ccc(-n2cc3cc(-c4cc(CCCN)cc(Cl)c4Cl)[nH]c3nc2=O)cc1 [Compound 224]
E. coli ATCC25922 MIC [1]: + (a “+” indicates that the compound has an MIC value of 16 micrograms/ml or less)

CC(C)[C@H](NCCCNC(=N)N)c1ccc(-n2cc3cc(-c4cc(CCC[C@H](C)N)cc(Cl)c4F)[nH]c3nc2=O)cc1 [Compound 433]
E. coli ATCC25922 MIC [2]: + (a “+” indicates that the compound has an MIC value of 16 micrograms/ml or less)

Cc1c(-c2cc3cn(-c4ccc(CNCCCNC(=N)N)cc4)c(=O)nc3[nH]2)cc(CCCCN)cc1[N+](=O)[O-] [Compound 120]
E. coli ATCC25922 MIC [1]: + (a “+” indicates that the compound has an MIC value of 16 micrograms/ml or less)

NCCCCc1cc(Cl)c(Cl)c(-c2cc3cn(-c4ccc(CNCCCN=C(N)N)cc4)c(=O)nc3[nH]2)c1 [Compound 62]
E. coli ATCC25922 MIC [1]: + (a “+” indicates that the compound has an MIC value of 16 micrograms/ml or less)

CC(N)CCCc1cc(Cl)c(F)c(-c2cc3cn(-c4ccc(C(C)NCCCNC(N)=NC5CNC5)cc4)c(=O)nc3[nH]2)c1 (stereo not shown) [Compound 383]
E. coli ATCC25922 MIC [2]: + (a “+” indicates that the compound has an MIC value of 16 micrograms/ml or less)

N=C(N)NCCCNCc1ccc(-n2cc3cc(-c4c(Cl)ccc(CCCCN)c4Cl)[nH]c3nc2=O)cc1 [Compound 10]
E. coli ATCC25922 MIC [1]: + (a “+” indicates that the compound has an MIC value of 16 micrograms/ml or less)

C[C@H](N)CCCc1cc(Cl)c(F)c(-c2cc3cn(-c4ccc([C@@H](C)N)cc4)c(=O)nc3[nH]2)c1 [Compound 406]
E. coli ATCC25922 MIC [2]: − (a “−” indicates that the compound has an MIC value greater than 16 micrograms/ml)

CC(N)CCCc1cc(-c2cc3cn(-c4ccc(C(C)NCCCNC(=N)N)cc4)c(=O)nc3[nH]2)cc(C2CCCC2)c1 (stereo not shown) [Compound 484]
E. coli ATCC25922 MIC [1]: + (a “+” indicates that the compound has an MIC value of 16 micrograms/ml or less)
